# Experiments:
# Integrin alpha-4/beta-1 [1] = molecular target: T1, Integrin alpha-4/beta-1 (Homo sapiens, UniProt P05556+P13612); test: Inhibition of [Ca2+]/Mg2+ unactivated state of very late antigen 4 (VLA-4); type: protein-complex assay
# Integrin alpha-4/beta-7 = molecular target: T2, Integrin alpha-4/beta-7 (Homo sapiens, UniProt P13612+P26010); test: Inhibition of Mn2+ activated state of alpha4-beta7 integrin; type: protein-complex assay
# T2 sequence (P13612 whole entry): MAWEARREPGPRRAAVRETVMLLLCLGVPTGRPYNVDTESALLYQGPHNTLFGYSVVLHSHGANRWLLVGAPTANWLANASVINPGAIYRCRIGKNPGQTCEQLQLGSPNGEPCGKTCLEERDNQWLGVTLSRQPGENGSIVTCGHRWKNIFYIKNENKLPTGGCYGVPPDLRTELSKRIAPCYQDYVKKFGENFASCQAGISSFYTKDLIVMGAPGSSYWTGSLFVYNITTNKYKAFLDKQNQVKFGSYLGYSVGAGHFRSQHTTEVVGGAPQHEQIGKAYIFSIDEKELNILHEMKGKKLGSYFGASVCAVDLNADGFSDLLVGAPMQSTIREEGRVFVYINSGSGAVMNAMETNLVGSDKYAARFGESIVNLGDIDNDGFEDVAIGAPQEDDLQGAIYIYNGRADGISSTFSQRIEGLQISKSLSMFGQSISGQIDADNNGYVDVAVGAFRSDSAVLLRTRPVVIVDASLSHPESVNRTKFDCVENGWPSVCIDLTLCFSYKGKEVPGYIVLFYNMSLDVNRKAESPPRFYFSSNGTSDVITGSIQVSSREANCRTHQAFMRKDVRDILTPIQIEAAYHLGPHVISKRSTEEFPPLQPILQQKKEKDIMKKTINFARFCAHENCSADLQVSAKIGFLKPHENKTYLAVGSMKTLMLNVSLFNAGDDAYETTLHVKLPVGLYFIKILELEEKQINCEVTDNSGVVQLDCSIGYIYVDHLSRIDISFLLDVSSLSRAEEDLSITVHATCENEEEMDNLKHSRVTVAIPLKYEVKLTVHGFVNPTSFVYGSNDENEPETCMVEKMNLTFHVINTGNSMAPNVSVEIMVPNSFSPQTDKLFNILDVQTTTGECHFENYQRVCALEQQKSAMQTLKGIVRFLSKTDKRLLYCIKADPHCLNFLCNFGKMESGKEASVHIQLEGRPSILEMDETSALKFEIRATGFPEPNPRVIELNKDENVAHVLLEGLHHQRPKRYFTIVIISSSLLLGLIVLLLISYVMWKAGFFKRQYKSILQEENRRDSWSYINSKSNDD
# T2 sequence (P26010 whole entry): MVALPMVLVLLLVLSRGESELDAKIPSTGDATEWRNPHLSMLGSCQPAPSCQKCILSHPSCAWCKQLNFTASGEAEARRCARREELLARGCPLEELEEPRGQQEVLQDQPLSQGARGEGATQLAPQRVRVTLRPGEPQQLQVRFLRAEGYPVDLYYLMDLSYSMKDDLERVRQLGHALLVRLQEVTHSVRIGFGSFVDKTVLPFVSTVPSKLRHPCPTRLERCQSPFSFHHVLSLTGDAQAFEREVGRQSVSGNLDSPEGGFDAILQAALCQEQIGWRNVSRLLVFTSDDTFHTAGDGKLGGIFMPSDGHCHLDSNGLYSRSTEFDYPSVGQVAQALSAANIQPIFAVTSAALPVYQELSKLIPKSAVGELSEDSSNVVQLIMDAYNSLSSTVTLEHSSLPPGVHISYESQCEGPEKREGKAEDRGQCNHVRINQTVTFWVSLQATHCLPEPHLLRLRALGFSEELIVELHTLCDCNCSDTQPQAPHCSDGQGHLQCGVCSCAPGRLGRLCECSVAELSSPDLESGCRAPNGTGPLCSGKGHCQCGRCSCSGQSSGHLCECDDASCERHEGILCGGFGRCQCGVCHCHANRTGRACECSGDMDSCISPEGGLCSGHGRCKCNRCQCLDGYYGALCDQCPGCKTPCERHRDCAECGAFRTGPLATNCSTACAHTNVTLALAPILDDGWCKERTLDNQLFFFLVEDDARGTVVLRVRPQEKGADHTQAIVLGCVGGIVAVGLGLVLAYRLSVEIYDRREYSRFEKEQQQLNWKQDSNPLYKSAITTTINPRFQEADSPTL
# [2] = Clearance of compound in rat was evaluated; type: ADME, organism-based; settings: in vivo
# Integrin alpha-4/beta-1 [3] = molecular target: T1, Integrin alpha-4/beta-1; test: Inhibition of Mn2+ activated state of very late antigen 4 (VLA-4); type: protein-complex assay
# [4] = Bioavailability in rat; type: ADME, organism-based; settings: in vivo
# T1 sequence (P05556 whole entry, one chain of several): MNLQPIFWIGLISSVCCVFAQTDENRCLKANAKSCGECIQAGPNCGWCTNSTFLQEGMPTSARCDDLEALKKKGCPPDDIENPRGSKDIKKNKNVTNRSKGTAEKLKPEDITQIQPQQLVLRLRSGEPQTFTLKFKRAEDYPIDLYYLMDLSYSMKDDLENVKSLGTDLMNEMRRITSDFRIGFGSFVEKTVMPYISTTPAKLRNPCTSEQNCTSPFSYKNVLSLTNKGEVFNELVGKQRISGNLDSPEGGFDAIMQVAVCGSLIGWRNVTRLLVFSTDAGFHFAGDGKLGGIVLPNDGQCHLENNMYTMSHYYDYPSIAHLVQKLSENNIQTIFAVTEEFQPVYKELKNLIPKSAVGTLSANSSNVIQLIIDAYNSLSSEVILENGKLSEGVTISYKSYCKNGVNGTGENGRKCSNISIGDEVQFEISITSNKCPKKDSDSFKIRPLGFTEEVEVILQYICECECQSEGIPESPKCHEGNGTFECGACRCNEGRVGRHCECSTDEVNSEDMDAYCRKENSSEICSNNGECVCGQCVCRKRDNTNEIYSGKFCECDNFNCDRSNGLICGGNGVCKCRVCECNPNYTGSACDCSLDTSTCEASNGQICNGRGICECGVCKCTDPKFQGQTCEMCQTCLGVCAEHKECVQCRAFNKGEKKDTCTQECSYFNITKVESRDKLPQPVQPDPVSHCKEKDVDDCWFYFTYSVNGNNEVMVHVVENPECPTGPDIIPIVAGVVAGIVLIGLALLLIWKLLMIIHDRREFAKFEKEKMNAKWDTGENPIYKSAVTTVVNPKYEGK
Structure (SMILES),IC50 (Integrin alpha-4/beta-1 [1]) [nM],IC50 (Integrin alpha-4/beta-7) [nM],clearance [2] [mL/min/kg],IC50 (Integrin alpha-4/beta-1 [3]) [nM],bioavailability [4] [%]
O=C(O)[C@H](Cc1ccc2nc(-c3c(Cl)cccc3Cl)oc2c1)NC(=O)[C@@H]1CCN1S(=O)(=O)c1cc(Cl)cc(Cl)c1,33,1690,24,1.7,8
O=C(N[C@@H](Cc1ccc2[nH]c(-c3c(Cl)cccc3Cl)nc2c1)C(=O)O)c1c(Cl)cccc1Cl,22,3.2,24,0.69,1.2
O=C(N[C@@H](Cc1ccc2oc(-c3c(Cl)cccc3Cl)nc2c1)C(=O)O)c1c(Cl)cccc1Cl,52,5.5,9,0.79,20
COc1cccc(OC)c1-c1ccc(C[C@H](NC(=O)[C@]2(C)CCN2S(=O)(=O)c2cc(Cl)cc(Cl)c2)C(=O)O)cc1,0.27,–,97,–,–
O=C(Nc1ccc(C[C@H](NC(=O)[C@@H]2CCN2S(=O)(=O)c2cc(Cl)cc(Cl)c2)C(=O)O)cc1)c1c(Cl)cccc1Cl,0.31,22,33,0.27,0.7
O=C(O)[C@H](Cc1ccc2[nH]c(-c3c(Cl)cccc3Cl)nc2c1)NC(=O)[C@@H]1CCN1S(=O)(=O)c1cc(Cl)cc(Cl)c1,1.8,105,21,0.54,0.3
O=C(N[C@@H](Cc1ccc2oc(-c3c(Cl)cccc3Cl)nc2c1)C(=O)O)c1c(Cl)cncc1Cl,21,4.3,25,0.34,25
O=C(O)[C@H](Cc1ccc2oc(-c3c(Cl)cccc3Cl)nc2c1)NC(=O)[C@@H]1CCN1S(=O)(=O)c1cc(Cl)cc(Cl)c1,3.6,179,24,0.74,15

# — ChEMBL document CHEMBL1148237, “Bioisosteric replacement of anilide with benzoxazole: potent and orally bioavailable antagonists of VLA-4” (Bioorg Med Chem Lett, 2004)
